Test results reported in patent publication US20240424477A1, “SYSTEM AND DEVICES FOR REMOVAL OF CONTAMINATES” (priority 2021, published 2024).

Assays:
[1] = conventional drinking water treatment, literature; cited from earlier work
MO protein = experiment: 19F NMR protein-ligand binding (peak height ratio B); parameters: species or system Moringa oleifera; conditions: PFAS 50 mg/L
Method: ^19F NMR. ^19F NMR measurements were taken on a Bruker AVANCE III 500 NMR. 3,000 scans were run for each sample with a 1 second relaxation delay. TFMAA was added to each sample as an internal standard. 90% H2O and 10% D20 were used for instrument lock and calibration. PFAS concentrations remained constant at 50 mg/L. […] of sample was used for each run. ^19F NMR spectra were obtained with a spectral width 113636.36 Hz and spectral frequency 470.57 MHz.
Spectrum were analyzed via MestreNova software for phase correction and baseline correction. Peak picking was completed automatically by the software. […] Intensities were normalized by TFMAA peak area at approximately −64.9 ppm. NMR data is included in the Supporting Information. The NMR peak height ratio, B, can be used to determine the relative ranking of binding affinities between protein-ligand complexes. B was calculated using Equation (1)
Where lb is the sum of ligand NMR heights in the presence of protein and lh is the sum of free ligand NMR heights.
^19F NMR. NMR can be used to study protein-ligand interactions by examining changes in peak height, peak width, and chemical shifts. A decrease in peak height indicates the formation of a protein-ligand complex. Previous literature has used ^19F NMR to look at PFAS binding to albumin proteins. In this work, PFAS (ligand) concentrations remain constant while MO protein concentrations were varied.

[2] = when protein concentrations increase

Molecule	removal of PFOA and PFOS by coagulation [1]	binding affinity to MO protein (NMR peak height ratio, B) (MO protein; [2])	binding affinity to MO protein (NMR peak height ratio, B) (MO protein; lower protein concentrations)
[Cl][Fe]([Cl])[Cl] [FeCl3, ferric chloride]	about 20%	–	–
O=C(O)C(F)(F)C(F)(F)C(F)(F)C(F)(F)C(F)(F)C(F)(F)C(F)(F)F [PFOA, perfluorooctanoic acid]	–	similar	–
O=S(=O)(O)C(F)(F)C(F)(F)C(F)(F)C(F)(F)C(F)(F)C(F)(F)C(F)(F)C(F)(F)F [PFOS, perfluorooctanesulfonic acid]	–	similar	stronger affinity than MO-PFOA
alum	about 20%	–	–
